Patent US11136296B2, “Substituted N-arylethyl-2-arylquinoline-4-carboxamides and use thereof” (Bayer Aktiengesellschaft, priority 2017, dated 2021)
pIC50: −log10 of the molar value. Each block holds one compound with its values, some of them ahead of it.

Molecular target: FP receptor (Homo sapiens (Human), UniProt P43088)
Test: In vitro test of inhibition of human FP receptor activity (PGF2α-induced calcium flux in FP-expressing CHEM1 cells)
Type: cell-based
Conditions: PGF2α-induced (2 nM) calcium flux in FP-expressing CHEM1 cells; some as mean values from multiple determinations
Excerpt: Table 1 below lists the IC50 values from this assay for individual working examples of the invention (some as mean values from multiple independent individual determinations): […]

FP receptor, sequence (P43088 whole entry): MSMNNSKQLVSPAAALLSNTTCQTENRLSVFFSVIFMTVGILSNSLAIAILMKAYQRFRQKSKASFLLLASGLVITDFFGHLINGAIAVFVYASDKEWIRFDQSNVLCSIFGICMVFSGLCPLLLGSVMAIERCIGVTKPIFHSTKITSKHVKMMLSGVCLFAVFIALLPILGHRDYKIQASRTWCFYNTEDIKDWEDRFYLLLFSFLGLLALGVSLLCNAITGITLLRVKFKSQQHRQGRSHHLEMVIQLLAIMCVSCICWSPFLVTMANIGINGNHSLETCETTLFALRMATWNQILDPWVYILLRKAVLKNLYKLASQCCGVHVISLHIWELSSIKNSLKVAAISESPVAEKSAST

Compound: Cc1c(-c2ccccc2)nc2ccc(Br)cc2c1C(=O)NCC(C)(CC(=O)O)c1ccccc1F (single isomer, unassigned; (-)) [Example 116, (−)-4-{[(6-Bromo-3-methyl-2-phenylquinolin-4-yl)carbonyl]amino}-3-(2-fluorophenyl)-3-methylbutanoic Acid]
pIC50: 7.13

Compound: Cc1c(-c2ccccc2)nc2ccc(Br)cc2c1C(=O)NCC(C)(CC(=O)O)c1ccccn1 (single isomer, unassigned; (-)) [Example 119, (−)-4-{[(6-Bromo-3-methyl-2-phenylquinolin-4-yl)carbonyl]amino}-3-methyl-3-(pyridin-2-yl)butanoic Acid]
pIC50: 6.82

Compound: COc1ccccc1C(C)(CNC(=O)c1c(C)c(-c2ccccc2)nc2ccc(Br)cc12)CC(=O)O (single isomer, unassigned; (-)) [Example 122, (−)-4-{[(6-Bromo-3-methyl-2-phenylquinolin-4-yl)carbonyl]amino}-3-(2-methoxyphenyl)-3-methylbutanoic Acid]
pIC50: 6.34

Compound: COc1ccc(F)cc1C(CNC(=O)c1c(C)c(-c2ccccc2)nc2ccc(Br)cc12)CC(=O)O (single isomer, unassigned; (-)) [Example 125, (−)-4-{[(6-Bromo-3-methyl-2-phenylquinolin-4-yl)carbonyl]amino}-3-(5-fluoro-2-methoxyphenyl)butanoic Acid]
pIC50: 7.01

Compound: COc1cccc(F)c1C(CNC(=O)c1c(C)c(-c2ccccc2)nc2ccc(Br)cc12)CC(=O)O (single isomer, unassigned; (-)) [Example 128, (−)-4-{[(6-Bromo-3-methyl-2-phenylquinolin-4-yl)carbonyl]amino}-3-(2-fluoro-6-methoxyphenyl)butanoic Acid]
pIC50: 6.96

Compound: CCOc1ccccc1C(CNC(=O)c1c(C)c(-c2ccccc2)nc2ccc(Br)cc12)CC(=O)O (single isomer, unassigned; (-)) [Example 130, (−)-4-{[(6-Bromo-3-methyl-2-phenylquinolin-4-yl)carbonyl]amino}-3-(2-ethoxyphenyl)butanoic Acid]
pIC50: 6.49

Compound: COc1ccc(F)cc1C(C)(CNC(=O)c1c(C)c(-c2ccccc2)nc2ccc(Br)cc12)CC(=O)O (single isomer, unassigned; (-)) [Example 134, (−)-4-{[(6-Bromo-3-methyl-2-phenylquinolin-4-yl)carbonyl]amino}-3-(5-fluoro-2-methoxyphenyl)-3-methylbutanoic Acid]
pIC50: 6.10

Compound: COc1c(F)cc(F)cc1C(C)(CNC(=O)c1c(C)c(-c2ccccc2)nc2ccc(Br)cc12)CC(=O)O (single isomer, unassigned; (-)) [Example 137, (−)-4-{[(6-Bromo-3-methyl-2-phenylquinolin-4-yl)carbonyl]amino}-3-(3,5-difluoro-2-methoxyphenyl)-3-methylbutanoic Acid]
pIC50: 6.36

Compound: COc1cc(F)ccc1C(C)(CNC(=O)c1c(C)c(-c2ccccc2)nc2ccc(Br)cc12)CC(=O)O (single isomer, unassigned; (-)) [Example 140, (−)-4-{[(6-Bromo-3-methyl-2-phenylquinolin-4-yl)carbonyl]amino}-3-(4-fluoro-2-methoxyphenyl)-3-methylbutanoic Acid]
pIC50: < 6.00

Compound: COc1cccc(F)c1C(C)(CNC(=O)c1c(C)c(-c2ccccc2)nc2ccc(Br)cc12)CC(=O)O (single isomer, unassigned; (-)) [Example 144, (−)-4-{[(6-Bromo-3-methyl-2-phenylquinolin-4-yl)carbonyl]amino}-3-(2-fluoro-6-methoxyphenyl)-3-methylbutanoic Acid]
pIC50: 6.89

Compound: Cc1c(-c2ccccc2)nc2ccc(Br)cc2c1C(=O)NC(C)C(CC(=O)O)c1ccccc1Cl (single isomer, unassigned; (-)) [Example 146, (−)-4-{[(6-Bromo-3-methyl-2-phenylquinolin-4-yl)carbonyl]amino}-3-(2-chlorophenyl)pentanoic Acid]
pIC50: < 6.00

Compound: Cc1c(-c2ccccc2)nc2ccc(Br)cc2c1C(=O)NC(C)C(CC(=O)O)c1ccccc1Cl (single isomer, unassigned; (-)) [Example 149, (−)-4-{[(6-Bromo-3-methyl-2-phenylquinolin-4-yl)carbonyl]amino}-3-(2-chlorophenyl)pentanoic Acid]
pIC50: < 6.00

Compound: Cc1c(-c2ccccc2)nc2ccc(Br)cc2c1C(=O)NCC(CCC(=O)O)c1ccccc1Cl (single isomer, unassigned; (-)) [Example 152, (−)-5-{[(6-Bromo-3-methyl-2-phenylquinolin-4-yl)carbonyl]amino}-4-(2-chlorophenyl)pentanoic Acid]
pIC50: 8.10

Compound: Cc1c(-c2ccccc2)nc2ccc(Br)cc2c1C(=O)NCC(C)(CCC(=O)O)c1ccccc1Cl (single isomer, unassigned; (-)) [Example 155, (−)-5-{[(6-Bromo-3-methyl-2-phenylquinolin-4-yl)carbonyl]amino}-4-(2-chlorophenyl)-4-methylpentanoic Acid]
pIC50: 7.22

Compound: Cc1c(-c2ccccc2)nc2ccc(Br)cc2c1C(=O)NCC(CCC(=O)O)c1cc(F)ccc1Cl (single isomer, unassigned; (-)) [Example 164, (−)-5-{[(6-Bromo-3-methyl-2-phenylquinolin-4-yl)carbonyl]amino}-4-(2-chloro-5-fluorophenyl)pentanoic Acid]
pIC50: 7.82

Compound: COc1ccccc1C(CCC(=O)O)CNC(=O)c1c(C)c(-c2ccccc2)nc2ccc(Br)cc12 (single isomer, unassigned; (-)) [Example 167, (−)-5-{[(6-Bromo-3-methyl-2-phenylquinolin-4-yl)carbonyl]amino}-4-(2-methoxyphenyl)pentanoic Acid]
pIC50: 7.59

Compound: Cc1c(-c2ccccc2)nc2ccc(Br)cc2c1C(=O)NCC(C)(CCC(=O)O)c1cc(F)ccc1Cl (single isomer, unassigned; (-)) [Example 170, (−)-5-{[(6-Bromo-3-methyl-2-phenylquinolin-4-yl)carbonyl]amino}-4-(2-chloro-5-fluorophenyl)-4-methylpentanoic Acid]
pIC50: 6.96

Compound: Cc1c(-c2ccccc2)nc2ccc(Br)cc2c1C(=O)NCC(c1ccccc1Cl)N(C)CC(=O)O (single isomer, unassigned; (-)) [Example 188, (−)-N-[2-{[(6-Bromo-3-methyl-2-phenylquinolin-4-yl)carbonyl]amino}-1-(2-chlorophenyl)ethyl]-N-methylglycine]
pIC50: 7.27

Compound: Cc1c(-c2ccccc2)nc2ccc(Br)cc2c1C(=O)NCC(OCC(=O)O)c1ccccc1Cl (single isomer, unassigned; (-)) [Example 193, (−)-[2-{[(6-Bromo-3-methyl-2-phenylquinolin-4-yl)carbonyl]amino}-1-(2-chlorophenyl)ethoxy]acetic Acid]
pIC50: 6.82

Compound: Cc1c(-c2ccccc2)nc2ccc(Br)cc2c1C(=O)NCC(SCC(=O)O)c1ccccc1Cl (single isomer, unassigned; (-)) [Example 196, (−)-{[2-{[(6-Bromo-3-methyl-2-phenylquinolin-4-yl)carbonyl]amino}-1-(2-chlorophenyl)ethyl]sulfanyl}acetic Acid]
pIC50: 7.92

Further compounds by rising pIC50, results first:

pIC50: 7.92
Compound: Cc1c(-c2ccccc2)nc2ccc(Br)cc2c1C(=O)NCC(CCC(=O)O)c1ccccc1F (single isomer, unassigned; (-)) [Example 176, (−)-5-{[(6-Bromo-3-methyl-2-phenylquinolin-4-yl)carbonyl]amino}-4-(2-fluorophenyl)pentanoic Acid]

pIC50: 8.00
Compound: Cc1ccc(F)cc1C(CCC(=O)O)CNC(=O)c1c(C)c(-c2ccccc2)nc2ccc(Br)cc12 (single isomer, unassigned; (-)) [Example 207, (−)-5-{[(6-Bromo-3-methyl-2-phenylquinolin-4-yl)carbonyl]amino}-4-(5-fluoro-2-methylphenyl)pentanoic Acid]

pIC50: 8.09
Compound: Cc1ccccc1C(CCC(=O)O)CNC(=O)c1c(C)c(-c2ccccc2)nc2ccc(Br)cc12 (single isomer, unassigned; (-)) [Example 161, (−)-5-{[(6-Bromo-3-methyl-2-phenylquinolin-4-yl)carbonyl]amino}-4-(2-methylphenyl)pentanoic Acid]

pIC50: 8.14
Compound: Cc1c(-c2ccccc2)nc2ccc(Br)cc2c1C(=O)NCC(CCC(=O)O)c1c(F)cccc1F (single isomer, unassigned; (-)) [Example 182, (−)-5-{[(6-Bromo-3-methyl-2-phenylquinolin-4-yl)carbonyl]amino}-4-(2,6-difluorophenyl)pentanoic Acid]

pIC50: 8.39
Compound: Cc1c(-c2ccccc2)nc2ccc(Br)cc2c1C(=O)NCC(CCC(=O)O)c1ccccc1OC(F)F (single isomer, unassigned; (-)) [Example 179, (−)-5-{[(6-Bromo-3-methyl-2-phenylquinolin-4-yl)carbonyl]amino}-4-[2-(difluoromethoxy)phenyl]pentanoic Acid]

pIC50: 8.41
Compound: Cc1c(-c2ccccc2)nc2ccc(Br)cc2c1C(=O)NCC(CCC(=O)O)c1cccc(F)c1Cl (single isomer, unassigned; (-)) [Example 185, (−)-5-{[(6-Bromo-3-methyl-2-phenylquinolin-4-yl)carbonyl]amino}-4-(2-chloro-3-fluorophenyl)pentanoic Acid]

pIC50: 8.43
Compound: Cc1c(-c2ccccc2)nc2ccc(Br)cc2c1C(=O)NCC(CCC(=O)O)c1ccccc1C(F)(F)F (single isomer, unassigned; (-)) [Example 204, (−)-5-{[(6-Bromo-3-methyl-2-phenylquinolin-4-yl)carbonyl]amino}-4-[2-(trifluoromethyl)phenyl]pentanoic Acid]

pIC50: 8.46
Compound: Cc1c(-c2ccccc2)nc2ccc(Br)cc2c1C(=O)NCC(CCC(=O)O)c1c(F)cccc1Cl (single isomer, unassigned; (-)) [Example 158, (−)-5-{[(6-Bromo-3-methyl-2-phenylquinolin-4-yl)carbonyl]amino}-4-(2-chloro-6-fluorophenyl)pentanoic Acid]

pIC50: 8.92
Compound: Cc1c(-c2ccccc2)nc2ccc(Br)cc2c1C(=O)NCC(CCC(=O)O)c1c(Cl)ccc(F)c1F (single isomer, unassigned; (-)) [Example 201, (−)-5-{[(6-Bromo-3-methyl-2-phenylquinolin-4-yl)carbonyl]amino}-4-(6-chloro-2,3-difluorophenyl)pentanoic Acid]
